From US8551312B2, “Process to prepare amino acid-N, N-diacetic acid compounds” (Akzo Nobel N.V., priority 2006, dated 2013) come the findings set out here.

Assay type in all cases: physicochemical
A short description of data set [1]: Corrosiveness against aluminium, weight loss of submerged plates. Particulars: aluminium plates submerged in c. 40 wt % chelate solution at RT. As to the method:
(§1) Commercial Dissolvine® GL-38, Dissolvine® H-40 ex Akzo Nobel Chemicals, and Trilon® M ex BASF were used as reference GLDA-Na4, HEDTA-Na3, and MGDA-Na3, respectively. The partially acidified chelates (40% in water) were prepared by addition of the corresponding chelate acid (in water) to the commercial product until the highest pH was obtained at which less than 0.1 wt % fully neutralized chelate is present. GLDA-H4 was prepared by electrodialysis and MGDA-Nax<3H3−x was made from Trilon® M by ion exchange. The desired pH was derived from the species distribution graphs that are based on the protonation constants. The resulting chelate solutions all have a chelate content (Fe-TSV) between 38.3 and 43 wt % of the salt actually present.
The corrosiveness against aluminium was determined using unspecified aluminium plates. The aluminium plates of 6×3×0.2 cm, supplied by the technical service, were cleaned with ethanol cleaner and dried and the weight of the plates was measured. Subsequently, the plates were completely submerged in the commercial or partially acidified chelate solution and kept at RT. In time, the plates were removed from the solutions, rinsed, dried by technical air, and weighted. The corrosiveness was expressed as the weight loss after a certain period of time. Furthermore, the aluminium plates and the chelate solution were visually inspected to evaluate the corrosion process.

A short description of data set [2]: Conductivity of c. 40 wt % chelate solution (Knick Konductometer 703). To be noted: c. 40 wt % chelate in water. As for the experimental part:
as §1
The conductivity was measured with a Knick Konductometer 703.

Data set [3] in a line: pH of the c. 40 wt % chelate solution by glass electrode. To be noted: c. 40 wt % chelate solution as such. As to the method: as §1, with “constants.” for “constants. The resulting chelate solutions all have a chelate content (Fe-TSV) between 38.3 and 43 wt % of the salt actually present.”
The pH of the c. 40 wt % chelate solution as such was determined by a glass electrode.

Data set [4] is described as follows: Viscosity (Brookfield DV-II+ pro viscometer, S-18 spindle). Particulars: c. 40 wt % chelate in water. As to the method:
as §1
The viscosity was determined with a Brookfield DV-II+ pro viscometer, using a S-18 spindle. The temperature was maintained with a cryostat.

Turning to `O=C([O-])CN(CCO)CCN(CC(=O)[O-])CC(=O)[O-].[Na+].[Na+].[Na+]` [HEDTA-Na3], the “Corrosiveness Aluminium (% weigth loss after 70 hr)” value in data set [1] is reported as 7 % weigth loss. Besides, the “Conductivity (mS/cm) at 20° C.” value in data set [2] is given as 20.29 mS/cm. The compound also registered a pH in data set [3] of 13.4. In data set [4], the “Viscosity at 20° C. (Mpas)” value was 31 Mpas and the “Viscosity at 40° C. (Mpas)” value is 14.7 Mpas.

Regarding `CC(C(=O)[O-])N(CC(=O)[O-])CC(=O)[O-].[Na+].[Na+].[Na+]` (stereo not drawn) [MGDA-Na3], in data set [1], the “Corrosiveness Aluminium (% weigth loss after 70 hr)” value came to 6 % weigth loss. Also, the “Conductivity (mS/cm) at 20° C.” value in data set [2] amounted to 25.8 mS/cm. The pH in data set [3] is reported as 13.5. In data set [4], the “Viscosity at 20° C. (Mpas)” value turned out to be 26 Mpas and the “Viscosity at 40° C. (Mpas)” value came to 11.0 Mpas.

Take “tetrasodium glutamic acid-N,N-diacetate [GLDA-Na4]”: the “Corrosiveness Aluminium (% weigth loss after 70 hr)” value in data set [1] is given as 7 % weigth loss. In addition, the “Conductivity (mS/cm) at 20° C.” value in data set [2] is on record as 20.9 mS/cm. Moreover, the pH in data set [3] turned out to be 13.5. In data set [4], the “Viscosity at 20° C. (Mpas)” value is recorded as 51.5 Mpas and the “Viscosity at 40° C. (Mpas)” value is 21.4 Mpas.
